According to publication PMC9250534, “Synthesis and direct assay of large macrocycle diversities by combinatorial late-stage modification at picomole scale” (Nature Communications, 2022):
Numbered stars: 1 amine (or outer) side, 2 acyl side, 3 side chain; on linkers, the order of the positions; unused ones are H or OH. Bridge positions count the residues as written; N and C are the ends. Square brackets hold non-standard residues; d marks the D form. Peptide text beside a SMILES is read from it. * marks the point of attachment. 1,2,3Thiadiazole5CO(4-Me) = Cc1nnsc1C(=O)*; Isoorotoyl = O=C(c1c[nH]c(=O)[nH]c1=O)*; Nicotinoyl(6-OMe) = COc1ccc(C(=O)*)cn1; 2Thenoyl(5-Cl) = O=C(c1ccc(Cl)s1)*; Pyrazinecarbonyl = O=C(c1cnccn1)*; Cysteamide = C(CS[*:3])N[*:1]; Isovaleryl = CC(C)CC(=O)*; Orn = NCCC[C@H](N)C(=O)O; 2Furoyl = O=C(c1ccco1)*; Api = NC1(C(=O)O)CCNCC1; Bz = O=C(c1ccccc1)*; Mpa = O=C(O)CCS

Target: T1, thrombin (Homo sapiens, UniProt P00734)
T1 construct: consists of two polypeptide chains of 36 (light chain) and 259 amino acid
Assay: Thrombin inhibition screen of crude macrocycle reactions (residual thrombin activity, fluorogenic substrate Z-Gly-Gly-Arg-AMC)
Assay type: biochemical
Details: 10 µM macrocycle concentration; for percent residual thrombin activity: crude reactions, Library 1a-l, scaffold AA1-AA2-AA3 combined with 1-16 or '-'; for % thrombin activity, Original screen / % thrombin activity, Repeat screen: macrocycles containing acid 14, crude reaction; for % thrombin activity, Repeat screen: replicate reaction and screen
Experimental: As a proof-of-concept, we screened the macrocycle library for inhibitors against thrombin, which is the central blood coagulation protease and an important therapeutic target. We conducted the screen for thrombin-inhibiting macrocycles in 384-well reaction plates. Briefly, each well contained a unique macrocycle (10 μM), 5 μL of thrombin (2 nM final conc.), and subsequently, 5 µL of a fluorogenic substrate to measure the residual thrombin activity and the extent of protease inhibition.
The assays were performed in 384-well plates using Tris buffer at pH 7.4 (100 mM Tris-Cl, 150 mM NaCl, 10 mM MgCl2, 1 mM CaCl2, 0.1% w/v BSA, 0.01% v/v Triton-X100, and 0.6% v/v DMSO) using thrombin at a final concentration of 2 nM and the fluorogenic substrate Z-Gly-Gly-Arg-AMC at a final concentration of 50 μM. Thrombin (5 μL, 6 nM) in the Tris-Cl buffer described above was added to each peptide using a BioTek MultiFlo microplate dispenser, and incubated for 10 min at room temperature. […] Data was collected and exported using the Tecan Infinite M200 Pro instrument software. […] For the negative controls (20 wells containing DMSO but no macrocycle), an average slope was calculated. The percent of thrombin inhibition was calculated by dividing the slopes and multiplying the results by 100.

Row | percent residual thrombin activity | % thrombin activity, Original screen | % thrombin activity, Repeat screen | SMILES
1 | 100.852% |  |  | O=C1CCSSCCNC(=O)[C@H](Cc2ccc(O)cc2)NC(=O)c2cccc(c2)CNC(=O)[C@H](CCCNC(=O)c2ccco2)N1 [D2-B5-Y/16]
2 |  | 94.8% | 97.2% | CC(C)C[C@@H]1NC(=O)CCSSCCNC(=O)[C@H](CCCCNC(=O)c2ccc(Cl)s2)NC(=O)C2(CC2)CNC1=O [X L B6 D1]
3 |  | 70.6% | 70.5% | O=C1CCSSCCNC(=O)[C@H](Cc2ccc(O)cc2)NC(=O)C2(CC2)CNC(=O)[C@H](CNC(=O)c2ccc(Cl)s2)N1 [X D3 B6 Y]
4 | 93.1158% |  |  | COc1ccc(C(=O)NCCC[C@@H]2NC(=O)C3(CC3)CNC(=O)CCSSCCNC(=O)[C@H](Cc3c[nH]c4ccccc34)NC2=O)cn1 [B6-D2-W/10]
5 |  | 99.6% | 102.4% | O=C1CCSSCCNC(=O)[C@H]2CCCN(C2)C(=O)[C@H](Cc2ccccc2)NC(=O)[C@H](CCCCNC(=O)c2ccc(Cl)s2)N1 [X D1 F B4]
6 | 113.923% |  |  | CC(C)CC(=O)NCCC[C@@H]1NC(=O)c2ccc(cc2)CNC(=O)[C@H](CO)NC(=O)CCSSCCNC1=O [S-B3-D2/8]
7 | 104.596% |  |  | O=C1CCSSCCNC(=O)[C@H](CCCCNC(=O)c2ccccc2)NC(=O)[C@H](Cc2ccc(O)cc2)NC(=O)C2(CC2)CN1 [B6-Y-D1/1]
8 | 95.3682% |  |  | O=C(NCCC[C@@H]1NC(=O)[C@H](CO)NC(=O)[C@@H]2CCCN2C(=O)CCSSCCNC1=O)c1ccc(Cl)s1 [B1-s-D2/14] ([Mpa]PS[Orn](2Thenoyl(5-Cl))-Cysteamide; disulfide 1-C)
9 |  | 100.1% | 95.2% | CC(C)C[C@@H]1NC(=O)CCSSCCNC(=O)c2cccc(c2)CNC(=O)[C@H](CCCNC(=O)c2ccc(Cl)s2)NC1=O [X L D2 B5]
10 |  | 81.9% | 80.4% | O=C1CCSSCCNC(=O)[C@H](CCCNC(=O)c2ccc(Cl)s2)NC(=O)[C@H](Cc2ccccc2)NC(=O)c2cccc(c2)CN1 [X B5 F D2]
11 | 112.021% |  |  | O=C1CCNC(=O)[C@H](Cc2c[nH]cn2)NC(=O)CCSSCCNC(=O)[C@H](CCCNC(=O)c2c[nH]c(=O)[nH]c2=O)N1 [H-B2-D2/11]
12 | 109.409% |  |  | CC(C)CC(=O)NCCCC[C@@H]1NC(=O)[C@H](CC(C)C)NC(=O)CCSSCCNC(=O)[C@@H]2CCCN2C1=O [L-D1-B1/8] ([Mpa]LK(Isovaleryl)P-Cysteamide; disulfide 1-C)
13 |  | 77.4% | 84.4% | O=C1CCSSCCNC(=O)[C@@H](Cc2ccccc2)NC(=O)c2ccc(cc2)CNC(=O)[C@H](CNC(=O)c2ccc(Cl)s2)N1 [X D3 B3 f]
14 | 109.119% |  |  | NC(=O)CC[C@@H]1NC(=O)[C@H](CCCCNC(=O)c2c[nH]c(=O)[nH]c2=O)NC(=O)CCSSCCNC(=O)[C@@H]2CCCN2C1=O [D1-Q-B1/11] ([Mpa]K(Isoorotoyl)QP-Cysteamide; disulfide 1-C)
15 |  | 97.6% | 99.9% | O=C1CCSSCCNC(=O)C2CCCN2C(=O)C2(CCN(C(=O)c3ccc(Cl)s3)CC2)NC(=O)C(CO)N1 (centres unmarked) [X s D6 B1] ([Mpa]S[Api](2Thenoyl(5-Cl))P-Cysteamide; disulfide 1-C; configuration not given here)
16 |  | 93.7% | 99.7% | O=C1CNC(=O)[C@@H](NC(=O)c2ccc(Cl)s2)CSSCCNC(=O)c2ccc(cc2)CNC(=O)[C@@H](CO)N1 [C G s B3]
17 | 101.891% |  |  | O=C1CCSSCCNC(=O)[C@H](Cc2cnc[nH]2)NC(=O)c2cccc(c2)CNC(=O)[C@H](CCCNC(=O)c2ccco2)N1 [D2-B5-H/16]
18 | 107.016% |  |  | CC1NC(=O)CCSSCCNC(=O)C(CCCCNC(=O)c2ccccc2)NC(=O)C2CCCN2C1=O (centres unmarked) [a-B1-D1/1] ([Mpa]APK(Bz)-Cysteamide; disulfide 1-C; configuration not given here)
19 | 114.617% |  |  | Cc1nnsc1C(=O)NCCCC[C@@H]1NC(=O)[C@H](C(C)C)NC(=O)CCSSCCNC(=O)[C@@H]2CCCN2C1=O [V-D1-B1/15] ([Mpa]VK(1,2,3Thiadiazole5CO(4-Me))P-Cysteamide; disulfide 1-C)
20 | 94.9215% |  |  | O=C1CCSSCCNC(=O)[C@H](Cc2c[nH]c3ccccc23)NC(=O)[C@H](CCCNC(=O)c2c[nH]c(=O)[nH]c2=O)NC(=O)C2(CC2)CN1 [B6-D2-W/11]

Row | percent residual thrombin activity | % thrombin activity, Original screen | % thrombin activity, Repeat screen | SMILES
21 | 113.236% |  |  | C[C@H]1NC(=O)CCSSCCNC(=O)[C@H](CCCCNC(=O)c2cnccn2)NC(=O)[C@@H]2CCCN2C1=O [a-B1-D1/2] ([Mpa][dA]PK(Pyrazinecarbonyl)-Cysteamide; disulfide 1-C)
22 |  | 91.4% | 92.1% | NC(=O)CCC1NC(=O)CCNC(=O)C(CNC(=O)c2ccc(Cl)s2)NC(=O)CCSSCCNC1=O (centres unmarked) [X D3 B2 Q]
23 |  | 90.0% | 94.0% | O=C1NCCSSCCC(=O)N2CCC[C@H]2C(=O)NC2(CCN(C(=O)c3ccc(Cl)s3)CC2)C(=O)N[C@H]1Cc1c[nH]cn1 [X B1 D6 H] ([Mpa]P[Api](2Thenoyl(5-Cl))H-Cysteamide; disulfide 1-C)
24 |  | 91.7% | 93.5% | NC(=O)CC[C@@H]1NC(=O)C2(CCN(C(=O)c3ccc(Cl)s3)CC2)NC(=O)[C@@H]2CCCN2C(=O)CCSSCCNC1=O [X B1 D6 Q] ([Mpa]P[Api](2Thenoyl(5-Cl))Q-Cysteamide; disulfide 1-C)
25 |  | 65.4% | 56.1% | O=C1CCSSCCNC(=O)[C@H](CNC(=O)c2ccc(Cl)s2)NC(=O)C2(CC2)CNC(=O)[C@H](Cc2c[nH]c3ccccc23)N1 [X W B6 D3]
26 | 102.459% |  |  | C[C@H]1NC(=O)CCSSCCNC(=O)[C@H](CCCCNC(=O)c2c[nH]c(=O)cn2)NC(=O)CCNC1=O [a-B2-D1/9]
27 | 104.272% |  |  | O=C1CCSSCCNC(=O)[C@@H]2CCCN2C(=O)[C@H](CCCCNC(=O)c2ccco2)NC(=O)[C@@H](Cc2ccc(O)cc2)N1 [y-D1-B1/16] ([Mpa][dY]K(2Furoyl)P-Cysteamide; disulfide 1-C)
28 | 110.34% |  |  | CC(C)[C@@H]1NC(=O)CCSSCCNC(=O)[C@@H]2CCCN2C(=O)[C@H](CCCCNC(=O)c2ccco2)NC1=O [V-D1-B1/16] ([Mpa]VK(2Furoyl)P-Cysteamide; disulfide 1-C)
29 |  | 98.3% | 94.7% | CC(C)C[C@@H]1NC(=O)[C@H](CCCNC(=O)c2ccc(Cl)s2)NC(=O)CCSSCCNC(=O)[C@H]2CCCN(C2)C1=O [X D2 L B4]
30 | 116.562% |  |  | Cc1nnsc1C(=O)NCCC[C@@H]1NC(=O)c2ccc(cc2)CNC(=O)[C@H](CO)NC(=O)CCSSCCNC1=O [S-B3-D2/15]
31 | 107.675% |  |  | COc1ccc(C(=O)NCCC[C@@H]2NC(=O)CCSSCCNC(=O)[C@@H](Cc3ccccc3)NC(=O)[C@H]3CCCN(C3)C2=O)cn1 [D2-B4-f/10]
32 | 110.704% |  |  | COc1ccc(C(=O)NCCCC[C@@H]2NC(=O)[C@@H](CO)NC(=O)[C@@H]3CCCN3C(=O)CCSSCCNC2=O)cn1 [B1-s-D1/10] ([Mpa]P[dS]K(Nicotinoyl(6-OMe))-Cysteamide; disulfide 1-C)
33 |  | 95.2% | 101.4% | C[C@H]1NC(=O)CCSSCCNC(=O)[C@H](CCCCNC(=O)c2ccc(Cl)s2)NC(=O)CCNC1=O [X a B2 D1]
34 | 114.755% |  |  | NC(=O)CC[C@@H]1NC(=O)c2ccc(cc2)CNC(=O)[C@H](CCCNC(=O)c2c[nH]c(=O)[nH]c2=O)NC(=O)CCSSCCNC1=O [D2-B3-Q/11]
35 | 110.982% |  |  | CC(C)C[C@@H]1NC(=O)CCSSCCNC(=O)[C@H](CCCNC(=O)COc2ccccc2)NC(=O)[C@H]2CCCN(C2)C1=O [L-B4-D2/13]
36 |  | 91.5% | 96.1% | O=C1CNC(=O)[C@@H]2CCCN2C(=O)[C@@H](NC(=O)c2ccc(Cl)s2)CSSCCNC(=O)[C@H](Cc2ccccc2)N1 [C B1 G F] ({2Thenoyl(5-Cl)}-CPGF-Cysteamide; disulfide 1-C)
37 | 114.834% |  |  | CC[C@H](C)[C@@H]1NC(=O)CCSSCCNC(=O)[C@H]2CCCN(C2)C(=O)[C@H](CCCCNC(=O)c2cnccn2)NC1=O [I-D1-B4/2]
38 |  | 61.5% | 68.8% | O=C1CCSSCCNC(=O)[C@@H](CNC(=O)c2ccc(Cl)s2)NC(=O)[C@H](Cc2c[nH]c3ccccc23)NC(=O)CCN1 [X B2 W D4]
39 | 102.192% |  |  | COc1ccc(C(=O)NCCCC[C@@H]2NC(=O)CCSSCCNC(=O)C3(CC3)CNC(=O)[C@H](CO)NC2=O)cn1 [D1-S-B6/10]
40 | 107.587% |  |  | C[C@H]1NC(=O)CCSSCCNC(=O)[C@H](CCCCNC(=O)c2ccco2)NC(=O)CCNC1=O [a-B2-D1/16]
